Results as given in patent US20110081662A1, “SCREENING METHODS FOR BONE MORPHOGENETIC MIMETICS” (THRASOS THERAPEUTICS, INC., priority 2000, published 2011).
pIC50: −log10 of the molar value. Bridges are numbered along the chain shown (N, C = ends). Where no end group is shown, it is not given here.

Experiments:
daf-4 ECD = target: T1, daf-4 ECD (Caenorhabditis elegans, UniProt P50488); assay: BMP binding to purified daf-4 ECD (ligand blot, Scatchard analysis); design: species or system C. elegans
T1 construct: 1 includes additional portions on the N and C terminus; made in house; host or cells: transfected DHFR(-) CHO cell line PJ511.9.8, purified from conditioned medium
T1 sequence (P50488 with tags, fused parts or gaps): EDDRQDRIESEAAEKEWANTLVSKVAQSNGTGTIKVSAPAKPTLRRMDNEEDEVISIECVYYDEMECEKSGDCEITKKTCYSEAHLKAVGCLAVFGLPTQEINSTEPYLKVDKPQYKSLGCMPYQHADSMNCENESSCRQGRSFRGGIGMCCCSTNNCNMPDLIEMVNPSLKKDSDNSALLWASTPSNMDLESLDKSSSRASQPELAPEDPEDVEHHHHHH
Text: A novel ligand-blot technique was developed to evaluate the binding of BMP-7 to the purified daf-4 ECD.

[1] = test system: BMP-7 receptor-enriched plasma membrane fraction of ROS cells; assay: Radio-ligand receptor assay (displacement of 125I-labeled BMP-7); type: binding, rat
Protocol: Radio-ligand receptor Assay: The receptor-binding activities of various BMP ligands (New York Public Health Labs, Albany, N.Y.) were determined by an equilibrium displacement binding isotherm assay using BMP-7 receptor-enriched plasma membrane fraction of ROS cells (ATCC 17-2.8) and ^125I-labeled BMP-7 (NEN, Billerica, Mass.) as ligand. Purified BMP-7 was radio-iodinated BMP-7 to a specific activity of 70-78 uCi/ug by a modified procedure of lactoperoxidase method (Schneyer, A. L., et al., Endocrinology 119, 1446-1453 (1986)). The percent bindability of radioiodinated BMP-7 to excess receptor is 30-37%. Receptors from ROS cells are obtained by a procedure previously described (Dattatreyamurty, B., et al., (1986) J. Biol. Chem. 261.). […] In a typical assay, fixed amounts of ^125I-labeled sol. BMP-7 (−80.000 cpm) were incubated with a fixed amount of receptor-enriched plasma membrane fraction in the presence (5 ug. for non-specific binding) or absence of excess unlabeled BMP-7 (for total binding). Displacement curves were generated with increasing concentrations of BMP-7 standard preparation (5-2000 ng). The assay incubations were carried out in a reaction volume of 300 μl with shaking for 22 hrs. at 4° C. Bound and unbound ^125I-labeled BMP-7 were separated by centrifugation (30,500×g. 30 minutes). The supernatants were aspirated and pellets washed before counting in a gamma counter (Packard Instr. Downers Grove, Ill.). The concentration of test agent required to give 50% inhibition of total specific binding of ^125I-labeled BMP-7 ^(ED50^) was calculated from competitive data.

[2] = test system: BMP-7 induced and basal alkaline phosphatase activity in ROS cells (rat Osteosarcoma 17/2.8); assay: ROS cell based alkaline phosphatase assay; settings: for pIC50: peptide together with BMP-7 (1.33 nM), ROS cells, 2 days, read-out: peptide concentration giving 50% inhibition of cellular responsiveness to BMP-7
Protocol: ROS Cell Based Alkaline Phosphatase Assays: BMP-7 and test agents that bind BMP-7 receptors were analyzed by in vitro bioassay. This assay defines the role of these test agents at the receptor-binding site. It is believed that some of the test agents can effectively interact with receptors and inhibit BMP-7 induced target cell responsiveness, thereby acting as functional antagonists. Alternatively, these agents may mimic BMP-7 functions inducing alkaline phosphatase activity in ROS cells, thus acting as functional agonists. An assay procedure as described by Maliakal, J. C., et al., Growth Factors 11, 227-234, (1994) determined the biological activities of BMP-7 peptides. In a typical experiment, rat Osteosarcoma (17/2.8) cells were plated in 96 well plates (3.0×10^4 cells/well) and incubated overnight at 37 C in 5-6% CO2 incubator. Next day, the plates were examined to make sure that cells are healthy & confluent. Cells were treated with increasing concentrations of BMP-7 standard (1-10,000 ng/ml) or test agents (0.02-200 μM) or appropriate concentrations of test agent alone or with BMP-7 standard prepared in medium containing 1% FBS and incubated for 2 days at 37 C in 5-6% CO2 incubator. The cellular content of alkaline phosphatase activity was determined by the method of Reddi, A. H. & Huggins, C. B. Proc. Natl. Acad. Sci. USA 69, 1601-1605 (1972). Enzyme estimations were routinely carried out in 96 well plates. Following removal of culture medium, cells were washed with pre-warmed PBS (150 μl) and further incubated in 100 μl of pre-warmed 1% Triton X-100 for 30 minutes at 37 C. Plates were centrifuged for 10 minutes at full speed, and recovered samples (each 15 μl) were assayed for enzyme activity by adding 90 μl p-nitrophenyl phosphate (Sigma, St. Louis, Mo.) as a substrate in 0.05 M glycine-NaOH buffer, pH 9.3 and incubating for 20 minutes at 37 C. The reaction was stopped by adding 75 ul of 0.2 N NaOH/well and absorbance at 405/490 nm is measured on a Dynatech MR 700 plate reader (Dynatech Laboratories, U.K.). Results are expressed as concentration of peptide/small molecule inhibitor (with antagonist activity) required to give 50% inhibition of maximum response to BMP-7 standard. The activities of test agents that stimulate cell responsiveness (with agonist activity), are expressed relative to BMP-7 standard.

ECD of daf-4 receptor = target: T2, ECD of daf-4 receptor (Caenorhabditis elegans, UniProt P50488); assay: Type II receptor-based HTS rapid solid-phase assay; type: binding, C. elegans; settings: ECD immobilized on PVDF membrane, 18 h, room temperature
T2 construct: 1 includes additional portions on the N and C terminus; made in house; host or cells: transfected DHFR(-) CHO cell line PJ511.9.8, purified from conditioned medium
T2 sequence (P50488 with tags, fused parts or gaps): T1 sequence (P50488 with tags, fused parts or gaps)
Text: Preparation of type II Receptor ECD: Highly purified extracellular domain (ECD) of the type II receptor daf-4 was used in this assay. The ECD of the daf-4 receptor was cloned and vectors (pCMV5 expression vectors, daf-4 sequence including the mammalian consensus start site and the hexa-histidine sequence tag) are constructed for the expression of this molecule in mammalian cells. In this construct, the ECD has been linked to a hexa-Histadine sequence tag for subsequent purification and detection. The transfected DHFR(−) CHO cell line PJ511.9.8 has been used for the daf-4 expression as outlined below. This cloning method can also be utilized with other bone morphogenetic proteins.
Purification of daf-4 ECD: A purification protocol to process large volumes of conditioned media (3.5 L/week) was developed. The procedure involves initial isolation of daf-4 ECD by using Talon (Pharmacia Tech.) Immobilized metal affinity column. As daf-4 ECD protein is linked to a hexa-His sequence, the protein is bound to the metal affinity column and is subsequently eluted by imidazoic ([…]) containing buffer. […] The purified preparation was analyzed by reversed phase HPLC. […]
HTS assay procedure: BMP-7 binding activity was determined by a rapid solid-phase assay using ^125I-labeled BMP-7 as ligand and highly purified ECD of daf-4 as type II receptor. […]

[3] = lower peptide concentrations (0.6-60 μM)

Row | Substance | pIC50 [2] | effect on basal cell responsiveness (basal alkaline phosphatase activity) ([2]; peptide alone) | behaviour of peptide on BMP-7 induced cell responsiveness ([2]; peptide together with BMP-7) | also measured
1 | BMP-4: bone morphogenetic protein | – | – | – | binding to extracellular domain of daf-4 (daf-4 ECD): readily binds
2 | CCFINPETVCC, SEQ I.D NO. 6; cyclized (disulfide (positions not given here); also: cyclized (mode not given here); listed as Homo sapiens) [Peptide H-2C] | 5.30 | inhibiting | antagonist | effect on binding of 125I-labeled BMP-7 to the receptor ([1]; peptide at 8 μM): potentiated
3 | CYFDDSSNVIC SEQ I.D NO. 7; 9 residues, ends cyclized (disulfide 1-11 (inferred); listed as Homo sapiens) [Peptide F2-2] | – | – | – | effect on responsiveness to BMP-7 at higher concentrations ([2]; higher peptide concentrations (above 0.6-60 μM)): inhibited; behaviour of peptide on BMP-7 induced cell responsiveness at lower concentrations [2, 3]: weak agonist; potentiation of BMP-7 induced cell responsiveness [2, 3]: 20%
4 | CYFDDSSNVICKKYRS, SEQ I.D NO. 9; 11 residue loop with 5 residue C-terminal extension (disulfide 1-11; listed as Homo sapiens) [Peptide F2-3] | – | no significant effect | agonistic | percent increase in BMP-7 response (relative to the absence of peptide) ([2]; peptide 0.01 μM, sub-maximal BMP-7, P<0.001): 53%; percent increase in BMP-7 response (relative to the absence of peptide) ([2]; peptide 0.1 μM, sub-maximal BMP-7, P=0.007): 54%; percent increase in BMP-7 response (relative to the absence of peptide) ([2]; peptide 1 μM, sub-maximal BMP-7, P=0.01): 48%; inhibition of 125I-labeled BMP-7 binding to the ECD of daf-4 receptor (ECD of daf-4 receptor): 75%
5 | F2-2c: CIVNSSDDFYC SEQ I.D NO. 8; control peptide, residues of F2-2 in reverse order (disulfide 1-11 (inferred); listed as Homo sapiens) [Peptide F2-2c, reference compound] | – | no effect | no effect | activity in radioligand receptor assay [1]: inactive
6 | H-1: CAFPLNSYMNATNHAIVQTLVHFINPETVPKC SEQ ID NO 5; heel peptide, cyclized (disulfide 1-32 (inferred); listed as Homo sapiens) [Peptide H-1] | – | effective only at very high concentrations | weak antagonist | concentrations required to inhibit the BMP-7 induced cell response ([2]; peptide together with BMP-7): 44 to 220 µM

Continued, in another order:

Row | pIC50 [2] | Substance | effect on basal cell responsiveness (basal alkaline phosphatase activity) ([2]; peptide alone) | behaviour of peptide on BMP-7 induced cell responsiveness ([2]; peptide together with BMP-7) | also measured
7 | 4.70 | CELYVSFRDLGWQDWIIAPEGYAAYC, SEQ I.D NO. 3; BMP-7 finger 1 peptide with cyclized ends (disulfide 1-26 (inferred); listed as Homo sapiens) [Peptide F1-1] | – | antagonist | peptide concentration effective to inhibit basal cellular responsiveness ([2]; peptide alone): 52 to 260 µM
8 | 5.00 | CFRDLGWQDWIIAPC, SEQ I.D NO. 4; 15 residue peptide cyclized at the ends (disulfide 1-15 (inferred); listed as Homo sapiens) [Peptide F1-2] | weakly inhibiting | antagonist | activity in radioligand receptor assay [1]: relatively weak activity; concentration required to inhibit the binding of 125I-labeled BMP-7 to the receptor ([1]; ROS cell plasma membranes): 179 µM
9 | 5.10 | CLNAISVLYFDDSSNVILKKYRNMVVRC, SEQ ID NO. 10; cyclized (disulfide 1-28 (inferred); listed as Homo sapiens) [Peptide F2-1] | effectively inhibited | effectively inhibited | –
